These results are taken from ChEMBL document CHEMBL1201862, “PubChem BioAssay data set” (2004).

Assay in all cases: NCI anticancer screen, dose series, 48 h
Test [1] concerns OVCAR-3.
The test system of test [2] is LOX IMVI.
The subject of test [3] is SN12C.
Test [4] has as its system SW-620.
In test [5] the test system is CCRF-CEM.
For test [6], the system named is IGROV-1.
In test [7] the test system is SNB-19.
For test [8], the system named is HOP-92.
Test [9] concerns A498.
In test [10] the test system is SK-MEL-2.
Test [11] has as its system MCF7.
Test [12] deals with OVCAR-5.
Test [13] has as its system UACC-257.
For test [14], the system named is SK-MEL-5.
The subject of test [15] is UO-31.
The subject of test [16] is PC-3.
For test [17], the system named is SNB-75.
Test [18] deals with RXF 393.
Test [19] has as its system KM12.
The subject of test [20] is MDA-MB-231.

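Tested at 5 concentrations; 48 h exposure; 96-well plates; endpoints linearly interpolated, else capped at highest concentration. The concentration for 50% growth inhibition is given as GI50.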 Calls of active or inactive are those of the source. Cut-off read from the data, not from the text of the source: active = GI50 up to about 1.1 µM and inactive = higher. Non-standard residues stand in square brackets, D forms with d. Residues, ends and D or L forms follow the SMILES beside them. ξ: configuration not given here. *: point of attachment. NMeF = CN[C@@H](Cc1ccccc1)C(=O)O; ξNMeV = CNC(C(=O)O)C(C)C; Boc = CC(C)(C)OC(=O)*; OBn = c1ccc(CO*)cc1

In the case of `C/C=C1\CN(C(=O)OC(C)(C)C)C1C(=O)OC(C)(C)C` (centres undefined), the GI50 in test [1] was 94 µM (inactive); in test [2], > 100 µM (inactive); in test [3], > 100 µM (inactive); in test [4] it was > 100 µM (inactive); in test [5] it was > 100 µM (inactive); in test [6], > 100 µM (inactive). Besides, the GI50 in [7], in test [8], in test [9], in test [10], in [11] and in test [12] was > 100 µM (inactive) each time. For the same compound, the GI50 in test [13] is > 100 µM (inactive); in test [14], > 100 µM (inactive); in [15], 63.7 µM (inactive); in [16], > 100 µM (inactive).
In the case of `COC(=O)C(C(=O)C(=O)Nc1ccc([N+](=O)[O-])cc1)c1nc2ccc([N+](=O)[O-])cc2nc1O` (centres undefined), the GI50 in [1], in [2], in [3], in test [17], in [18] and in test [4] was > 100 µM (inactive) throughout. Also, the GI50 in test [5] is 55.2 µM (inactive); in [6], > 100 µM (inactive); in test [7] it was > 100 µM (inactive); in test [8] it was > 100 µM (inactive); in [9], > 100 µM (inactive); in test [10] it was > 100 µM (inactive). The GI50 is > 100 µM (inactive) in test [12]; > 100 µM (inactive) in test [13]; 65.6 µM (inactive) in test [14]; > 100 µM (inactive) in test [15]; > 100 µM (inactive) in [19].
For the compound `CCC(=O)NC(Nc1cc(C)on1)(C(F)(F)F)C(F)(F)F`, the GI50 in [1], in test [2], in test [3], in test [17], in test [18] and in [4] was > 100 µM (inactive) in each case. In addition, the GI50 in test [5], in [6], in [7], in [8], in [9] and in test [10] was > 100 µM (inactive) throughout. Also, the GI50 in test [11] is > 100 µM (inactive); in test [12] it was > 100 µM (inactive); in test [20] it was > 100 µM (inactive); in test [13], > 100 µM (inactive); in [14], > 100 µM (inactive); in test [15], 97.9 µM (inactive). In test [19], the GI50 was > 100 µM (inactive).
As for `Cc1cc(C)c(N[S+]([O-])c2cccc([N+](=O)[O-])c2)c(C)c1` (centres undefined), the GI50 in test [1], in test [3], in test [18], in test [4], in test [5] and in test [7] was > 100 µM (inactive) each time. The GI50 in [8], in test [9], in test [11], in test [12], in test [13] and in test [15] was > 100 µM (inactive) in each case. The GI50 in test [16] and in test [19] was > 100 µM (inactive) throughout.
In the case of `O=C1Nc2cccc(Cl)c2/C1=C\c1cccnc1`, the GI50 in test [1] was 5.64 µM (inactive); in [2] it was 0.944 µM (active); in test [3] it was 7.82 µM (inactive); in test [17], 15.5 µM (inactive); in test [18], 2.83 µM (inactive); in [4], 9.57 µM (inactive). Further, the GI50 was 4.58 µM (inactive) in [5]; 3.7 µM (inactive) in [7]; 27.7 µM (inactive) in test [8]; 21 µM (inactive) in test [9]; 11.1 µM (inactive) in [10]; 4.02 µM (inactive) in [11]. Further, the GI50 in [12] was 3.77 µM (inactive); in [13] it was 5.06 µM (inactive); in test [14], 11.4 µM (inactive); in test [15] it was 5.16 µM (inactive); in test [16], 14.8 µM (inactive); in [19] it was 5.96 µM (inactive).
For `O=c1c2cc(I)ccc2nc(-c2cccs2)n1-c1ccc(O)cc1`, the GI50 in test [1] is 9.51 µM (inactive); in [2] it was 11.6 µM (inactive); in test [3] it was 15.5 µM (inactive); in test [18] it was 14.8 µM (inactive); in [4], 22.2 µM (inactive); in test [6] it was 13.5 µM (inactive). In addition, the GI50 in [7] is 16.6 µM (inactive); in test [8], 10.1 µM (inactive); in [10], 15.6 µM (inactive); in [11] it was 11.5 µM (inactive); in [12], 15.5 µM (inactive); in [13], < 0.01 µM (active). In addition, the GI50 in [14] is 11.6 µM (inactive); in test [15], 10.4 µM (inactive); in test [16] it was 10.6 µM (inactive); in test [19] it was 11.2 µM (inactive).
Consider `COCOCC[C@@H]1CC=CC(NC(=O)OCc2ccccc2)C1/C=C/C(=O)CCC1OCCO1` (some centres undefined), for which the GI50 is 27.2 µM (inactive) in test [1]; 18.5 µM (inactive) in test [2]; 25.2 µM (inactive) in test [3]; 28.8 µM (inactive) in test [17]; 29.7 µM (inactive) in test [18]; 22.8 µM (inactive) in test [4]. Besides, the GI50 in test [5] is 17.3 µM (inactive); in [6], 56.6 µM (inactive); in [7] it was > 100 µM (inactive); in test [8], > 54.8 µM (inactive); in test [9], 71.1 µM (inactive); in test [10], 25.4 µM (inactive). In addition, the GI50 in test [12] was > 72.8 µM (inactive); in [13], 25.4 µM (inactive); in test [14] it was 55.2 µM (inactive); in [15], 46.6 µM (inactive); in test [19], 18.8 µM (inactive).
On to `CC(C)C(C(=O)N1CCC[C@@H]1C(=O)OCc1ccccc1)N(C)C(=O)C(C(C)C)N(C)C(=O)[C@H](Cc1ccccc1)N(C)C(=O)[C@H](NC(=O)OC(C)(C)C)C(C)C` (some centres undefined) (Boc-[dV][NMeF][ξNMeV][ξNMeV][dP]-OBn), for which the GI50 in test [1] is > 56.6 µM (inactive); in test [2], > 60.3 µM (inactive); in [3], > 100 µM (inactive); in test [17], 9.91 µM (inactive); in test [18], > 100 µM (inactive); in test [4], > 100 µM (inactive). Moreover, the GI50 was > 54.5 µM (inactive) in test [5]; > 100 µM (inactive) in test [6]; > 100 µM (inactive) in test [7]; 68.4 µM (inactive) in [8]; > 100 µM (inactive) in test [9]; > 100 µM (inactive) in test [10]. The GI50 in test [12] was > 100 µM (inactive); in test [13], 13.6 µM (inactive); in [14], 14.9 µM (inactive); in [15] it was > 29.2 µM (inactive); in test [19] it was > 80.7 µM (inactive).
